Laboratory results from patent publication US8952024B2, “Herbicidal pyrimidone derivatives” (E I du Pont de Nemours and Company, priority 2009, dated 2015).

Legend:
Test in all cases: Test D pre-/postemergence plant response
Format in all cases: in vivo
[1] = system: Russian thistle (Salsola kali)
Summary of the method: (§1)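 Greenhouse assay: sown seeds in loam/sand received preemergence spray; simultaneously, emerged seedlings (1- to 4-leaf, 2–18 cm) got postemergence spray of the same surfactant-containing formulation. Rating at 14–21 days by visual comparison with controls, 0 = no effect to 100 = complete control.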

[2] = system: barnyardgrass (Echinochloa crus-galli)
Summary of the method: as §1

[3] = system: bermudagrass (Cynodon dactylon)
Summary of the method: as §1

[4] = system: black mustard (Brassica nigra)
Summary of the method: as §1

[5] = system: dallisgrass (Paspalum dilatatum)
Summary of the method: as §1

[6] = system: dayflower (Virginia (VA) dayflower, Commelina virginica)
Summary of the method: as §1

[7] = system: green foxtail (Setaria viridis)
Summary of the method: as §1

[8] = system: guineagrass (Panicum maximum)
Summary of the method: as §1

[9] = system: itchgrass (Rottboellia cochinchinensis)
Summary of the method: as §1

[10] = system: mallow (common mallow, Malva sylvestris); settings: Postemergence
Summary of the method: as §1

[11] = system: prickly sida (Sida spinosa)
Summary of the method: as §1

[12] = system: quackgrass (Elytrigia repens)
Summary of the method: as §1

[13] = system: ragweed (common ragweed, Ambrosia elatior)
Summary of the method: as §1

[14] = system: sandbur (southern sandbur, Cenchrus echinatus)
Summary of the method: as §1

[15] = system: signalgrass (broadleaf signalgrass, Brachiaria platyphylla)
Summary of the method: as §1

[16] = system: sowthistle (common sowthistle, Sonchus oleraceous)
Summary of the method: as §1

[17] = Preemergence, 16 g ai/ha, scale 0 to 100, 0 no effect, 100 complete control
[18] = Postemergence, 16 g ai/ha, scale 0 to 100
[19] = Postemergence, 31 g ai/ha, scale 0 to 100 (0 no effect, 100 complete control)
[20] = Postemergence, 125 g ai/ha, scale 0 to 100 (0 no effect, 100 complete control)
[21] = Postemergence, 62 g ai/ha, scale 0 to 100 (0 no effect, 100 complete control)
[22] = Preemergence, 31 g ai/ha, scale 0 to 100 (0 no effect, 100 complete control)
[23] = Preemergence, 62 g ai/ha, scale 0 to 100
[24] = Preemergence, 125 g ai/ha, scale 0 to 100
[25] = Postemergence, 31 g ai/ha, scale 0 to 100
[26] = 125 g ai/ha, scale 0 to 100 (0 no effect, 100 complete control)
[27] = 62 g ai/ha, scale 0 to 100 (0 no effect, 100 complete control)
[28] = Postemergence, 250 g ai/ha, scale 0 to 100 (0 no effect, 100 complete control)

SMILES: Cc1ccc(Cl)cc1-n1c(-c2ccccc2)ncc(C(=O)C2=C(O)CCCC2=O)c1=O [Compound 52]
- Plant response rating, Russian Thistle [1, 17]: 0
- Plant response rating, Barnyardgrass [2, 18]: 75
- Plant response rating, Barnyardgrass [2, 19]: 75
- Plant response rating, Barnyardgrass [2, 20]: 80
- Plant response rating, Barnyardgrass [2, 21]: 75
- Plant response rating, Barnyardgrass [2, 17]: 0
- Plant response rating, Barnyardgrass [2, 22]: 0
- Plant response rating, Barnyardgrass [2, 23]: 0
- Plant response rating, Barnyardgrass [2, 24]: 10
- Plant response rating, Bermudagrass [3, 18]: 75
- Plant response rating, Bermudagrass [3, 19]: 75
- Plant response rating, Bermudagrass [3, 20]: 80
- Plant response rating, Bermudagrass [3, 21]: 75
- Plant response rating, Bermudagrass [3, 17]: 30
- Plant response rating, Bermudagrass [3, 22]: 70
- Plant response rating, Bermudagrass [3, 23]: 90
- Plant response rating, Bermudagrass [3, 24]: 100
- Plant response rating, Black Mustard [4, 18]: 65
- Plant response rating, Black Mustard [4, 19]: 90
- Plant response rating, Black Mustard [4, 20]: 98
- Plant response rating, Black Mustard [4, 21]: 98
- Plant response rating, Black Mustard [4, 17]: 0
- Plant response rating, Black Mustard [4, 22]: 20
- Plant response rating, Black Mustard [4, 23]: 80
- Plant response rating, Black Mustard [4, 24]: 100
- Plant response rating, Dallisgrass [5, 18]: 60
- Plant response rating, Dallisgrass [5, 25]: 65
- Plant response rating, Dallisgrass [5, 20]: 75
- Plant response rating, Dallisgrass [5, 21]: 70
- Plant response rating, Dallisgrass [5, 17]: 5
- Plant response rating, Dallisgrass [5, 22]: 10
- Plant response rating, Dallisgrass [5, 23]: 50
- Plant response rating, Dallisgrass [5, 24]: 95
- Plant response rating, Dayflower, VA [6, 18]: 5
- Plant response rating, Dayflower, VA [6, 25]: 5
- Plant response rating, Dayflower, VA [6, 20]: 60
- Plant response rating, Dayflower, VA [6, 21]: 30
- Plant response rating, Dayflower, VA [6, 17]: 0
- Plant response rating, Dayflower, VA [6, 22]: 0
- Plant response rating, Dayflower, VA [6, 23]: 0
- Plant response rating, Dayflower, VA [6, 24]: 40
- Plant response rating, Foxtail, Green [7, 18]: 70
- Plant response rating, Foxtail, Green [7, 25]: 70
- Plant response rating, Foxtail, Green [7, 20]: 95
- Plant response rating, Foxtail, Green [7, 21]: 85
- Plant response rating, Foxtail, Green [7, 17]: 0
- Plant response rating, Foxtail, Green [7, 22]: 0
- Plant response rating, Foxtail, Green [7, 23]: 0
- Plant response rating, Foxtail, Green [7, 24]: 15
- Plant response rating, Guineagrass [8, 18]: 50
- Plant response rating, Guineagrass [8, 25]: 70
- Plant response rating, Guineagrass [8, 20]: 75
- Plant response rating, Guineagrass [8, 21]: 75
- Plant response rating, Guineagrass [8, 17]: 0
- Plant response rating, Guineagrass [8, 23]: 50
- Plant response rating, Itchgrass [9, 18]: 25
- Plant response rating, Itchgrass [9, 25]: 50
- Plant response rating, Itchgrass [9, 20]: 65
- Plant response rating, Itchgrass [9, 21]: 65
- Plant response rating, Itchgrass [9, 17]: 0
- Plant response rating, Itchgrass [9, 22]: 0
- Plant response rating, Itchgrass [9, 23]: 0
- Plant response rating, Itchgrass [9, 24]: 5
- Plant response rating, Mallow ([10]; 16 g ai/ha, scale 0 to 100): 50
- Plant response rating, Mallow ([10]; 31 g ai/ha, scale 0 to 100): 65
- Plant response rating, Mallow [10, 26]: 75
- Plant response rating, Mallow [10, 27]: 65
- Plant response rating, Prickly Sida [11, 18]: 65
- Plant response rating, Prickly Sida [11, 25]: 65
- Plant response rating, Prickly Sida [11, 20]: 90
- Plant response rating, Prickly Sida [11, 21]: 80
- Plant response rating, Prickly Sida [11, 17]: 0
- Plant response rating, Prickly Sida [11, 22]: 0
- Plant response rating, Prickly Sida [11, 23]: 50
- Plant response rating, Prickly Sida [11, 24]: 100
- Plant response rating, Quackgrass [12, 18]: 5
- Plant response rating, Quackgrass [12, 25]: 10
- Plant response rating, Quackgrass [12, 20]: 20
- Plant response rating, Quackgrass [12, 21]: 15
- Plant response rating, Quackgrass [12, 17]: 0
- Plant response rating, Quackgrass [12, 22]: 0
- Plant response rating, Quackgrass [12, 24]: 20
- Plant response rating, Ragweed [13, 18]: 90
- Plant response rating, Ragweed [13, 25]: 95
- Plant response rating, Ragweed [13, 20]: 95
- Plant response rating, Ragweed [13, 21]: 95
- Plant response rating, Ragweed [13, 17]: 30
- Plant response rating, Ragweed [13, 22]: 50
- Plant response rating, Ragweed [13, 24]: 98
- Plant response rating, Sandbur [14, 18]: 65
- Plant response rating, Sandbur [14, 25]: 65
- Plant response rating, Sandbur [14, 20]: 80
- Plant response rating, Sandbur [14, 21]: 75
- Plant response rating, Sandbur [14, 17]: 0
- Plant response rating, Sandbur [14, 22]: 0
- Plant response rating, Sandbur [14, 24]: 98
- Plant response rating, Signalgrass [15, 18]: 50
- Plant response rating, Signalgrass [15, 25]: 60
- Plant response rating, Signalgrass [15, 20]: 90
- Plant response rating, Signalgrass [15, 21]: 80
- Plant response rating, Signalgrass [15, 17]: 0
- Plant response rating, Signalgrass [15, 22]: 0
- Plant response rating, Signalgrass [15, 24]: 90
- Plant response rating, Sowthistle [16, 18]: 80
- Plant response rating, Sowthistle [16, 25]: 95
- Plant response rating, Sowthistle [16, 20]: 100
- Plant response rating, Sowthistle [16, 21]: 98
- Plant response rating, Sowthistle [16, 17]: 0
- Plant response rating, Sowthistle [16, 22]: 80
- Plant response rating, Sowthistle [16, 24]: 100

SMILES: COCCCn1c(-c2cc(F)cc(F)c2)ncc(C(=O)C2=C(O)C3CCC(C3)C2=O)c1=O (stereo not drawn) [Compound 244]
- Plant response rating, Russian Thistle [1, 25]: 20
- Plant response rating, Russian Thistle [1, 20]: 60
- Plant response rating, Russian Thistle [1, 28]: 65
- Plant response rating, Russian Thistle [1, 21]: 40
- Plant response rating, Barnyardgrass [2, 25]: 80
- Plant response rating, Barnyardgrass [2, 20]: 85
- Plant response rating, Barnyardgrass [2, 28]: 90
- Plant response rating, Barnyardgrass [2, 21]: 80
- Plant response rating, Bermudagrass [3, 25]: 80
- Plant response rating, Bermudagrass [3, 20]: 95
- Plant response rating, Bermudagrass [3, 28]: 95
- Plant response rating, Bermudagrass [3, 21]: 80
- Plant response rating, Black Mustard [4, 25]: 50
- Plant response rating, Black Mustard [4, 20]: 95
- Plant response rating, Black Mustard [4, 28]: 98
- Plant response rating, Black Mustard [4, 21]: 75
- Plant response rating, Dallisgrass [5, 25]: 40
- Plant response rating, Dallisgrass [5, 20]: 75
- Plant response rating, Dallisgrass [5, 28]: 80
- Plant response rating, Dallisgrass [5, 21]: 75
- Plant response rating, Dayflower, VA [6, 25]: 30
- Plant response rating, Dayflower, VA [6, 20]: 65
- Plant response rating, Dayflower, VA [6, 28]: 70
- Plant response rating, Dayflower, VA [6, 21]: 50
- Plant response rating, Foxtail, Green [7, 25]: 75
- Plant response rating, Foxtail, Green [7, 20]: 95
- Plant response rating, Foxtail, Green [7, 28]: 100
- Plant response rating, Foxtail, Green [7, 21]: 90
- Plant response rating, Guineagrass [8, 25]: 70
- Plant response rating, Guineagrass [8, 20]: 75
- Plant response rating, Guineagrass [8, 28]: 75
- Plant response rating, Guineagrass [8, 21]: 75
- Plant response rating, Itchgrass [9, 25]: 60
- Plant response rating, Itchgrass [9, 20]: 75
- Plant response rating, Itchgrass [9, 28]: 75
- Plant response rating, Itchgrass [9, 21]: 70
- Plant response rating, Mallow ([10]; 31 g ai/ha, scale 0 to 100): 50
- Plant response rating, Mallow [10, 26]: 60
- Plant response rating, Mallow ([10]; 250 g ai/ha, scale 0 to 100 (0 no effect, 100 complete control)): 70
- Plant response rating, Mallow [10, 27]: 50
- Plant response rating, Prickly Sida [11, 25]: 25
- Plant response rating, Prickly Sida [11, 20]: 40
- Plant response rating, Prickly Sida [11, 28]: 60
- Plant response rating, Prickly Sida [11, 21]: 35
- Plant response rating, Quackgrass [12, 25]: 20
- Plant response rating, Quackgrass [12, 20]: 50
- Plant response rating, Quackgrass [12, 28]: 65
- Plant response rating, Quackgrass [12, 21]: 40
- Plant response rating, Ragweed [13, 25]: 65
- Plant response rating, Ragweed [13, 20]: 80
- Plant response rating, Ragweed [13, 28]: 85
- Plant response rating, Ragweed [13, 21]: 70
- Plant response rating, Sandbur [14, 25]: 70
- Plant response rating, Sandbur [14, 20]: 75
- Plant response rating, Sandbur [14, 28]: 75
- Plant response rating, Sandbur [14, 21]: 70
- Plant response rating, Signalgrass [15, 25]: 20
- Plant response rating, Signalgrass [15, 20]: 25
- Plant response rating, Signalgrass [15, 28]: 35
- Plant response rating, Signalgrass [15, 21]: 20
- Plant response rating, Sowthistle [16, 25]: 75
- Plant response rating, Sowthistle [16, 20]: 100
- Plant response rating, Sowthistle [16, 28]: 100
- Plant response rating, Sowthistle [16, 21]: 95
